Measured values as given in US9296698B2, “Amino heteroaryl compounds as beta-secretase modulators and methods of use” (Amgen Inc., priority 2009, dated 2016).
Read-outs that look alike come from different tables or passages of the source.

What was measured:
[1] = biological target: BACE 1 (Beta Secretase enzyme) (Homo sapiens, UniProt P56817); assay: In vitro enzymatic BACE FRET assay; type: biochemical; settings: IC50 range symbols, Table 1; read-out: BACE 1 FRET assay
Protocol: In Vitro Enzymatic BACE FRET (Fluorescence Resonance Energy Transfer) Assay (Enzyme Assay Data in Table 1)
The assay buffer used in this screen is 0.05 M acetate, pH 4.2, 10% DMSO final, 100 uM genapol (which is a nonionic detergent, below its Critical Micelle Concentration). […] The assay is effectively started by the addition of FRET substrate (50 nM) and the combination is incubated for one hour. The FRET assay is terminated with by addition of Tris buffer, which raises the pH to neutrality, and the fluorescence is determined. The FRET substrate is a peptide with commercially available fluorophore and quencher, on opposite sides of the BACE cleavage site.

[2] = test system: Aβ40 in conditioned medium of cells stably expressing Amyloid Precursor Protein (APP); assay: In vitro BACE cell-based assay (HEK cell assay), Aβ40 sandwich ELISA; settings: IC50 range symbols, Table 1, Aβ40, 24 h incubation, read-out: HEK cell assay
Protocol: In Vitro BACE Cell-Based Assay:
The cell-based assay measures inhibition or reduction of Aβ40 in conditioned medium of test compound treated cells expressing amyloid precursor protein.
Cells stably expressing Amyloid Precursor Protein (APP) were plated at a density of 40K cells/well in 96 well plates (Costar). The cells were cultivated for 24 hours at 37° C. and 5% CO2 in DMEM supplemented with 10% FBS. The test compounds were then added to cells in 10-point dose response concentrations with the starting concentration being either 100 μM or 10 μM. The compounds were diluted from stock solutions in DMSO and the final DMSO concentration of the test compounds on cells was 0.1%. After 24 h of incubation with the test compounds the supernatant conditioned media was collected and the Aβ 40 levels were determined using a sandwich ELISA. The IC50 of the compound was calculated from the percent of control or percent inhibition of Aβ 40 as a function of the concentration of the test compound.
The sandwich ELISA to detect Aβ 40 was performed in 96 well microtiter plates, which were pre-treated with goat anti-rabbit IgG (Pierce). The capture and detecting antibody pair that were used to detect Aβ 40 from cell supernatants were affinity purified pAb40 (Biosource) and biotinylated 6E10 (Signet Labs Inc.), respectively. The optimal concentration for the pAb40 antibody was 3 μg/ml in Superblock/TBS (Pierce) that was supplemented with 0.05% Tween 20 (Sigma).
Cellular supernatants were incubated with the capture antibody for 3 h at 4° C., followed by 3 wash steps in TBS-tween (0.05%). The detecting antibody incubation was for 2 h at 4° C., again followed by the wash steps as described previously. The final readout of the ELISA is Time-Resolved Fluorescence (counts per minute) using Delfia reagents Streptavidin-Europium and Enhancement solutions (Perkin Elmer) and the Victor 2 multilabel counter (Perkin Elmer).

Sequence of BACE 1 (Beta Secretase enzyme) (P56817 46-501, species assumed): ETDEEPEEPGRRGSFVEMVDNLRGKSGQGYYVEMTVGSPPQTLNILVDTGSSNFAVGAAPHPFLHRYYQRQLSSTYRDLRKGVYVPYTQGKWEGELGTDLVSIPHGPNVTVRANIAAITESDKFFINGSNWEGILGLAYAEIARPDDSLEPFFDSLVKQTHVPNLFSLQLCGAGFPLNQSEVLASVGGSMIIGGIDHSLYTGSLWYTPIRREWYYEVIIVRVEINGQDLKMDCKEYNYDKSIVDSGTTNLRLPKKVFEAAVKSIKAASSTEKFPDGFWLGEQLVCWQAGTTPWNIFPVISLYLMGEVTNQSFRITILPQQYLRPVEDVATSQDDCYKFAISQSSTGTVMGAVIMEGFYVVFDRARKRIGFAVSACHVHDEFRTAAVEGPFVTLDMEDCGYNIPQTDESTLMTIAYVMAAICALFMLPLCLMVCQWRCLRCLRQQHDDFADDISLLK

Row | Molecule | IC50 [1] [nM] | IC50 ([2]; Homo sapiens, HEK293, 24 h) [nM] | IC50 [2] [nM]
1 | Cc1ccccc1-c1ccc2nc(N)c(CC(C)C(=O)N[C@H](C)c3ccccc3OC(F)F)cc2c1 (stereo partly drawn) [Example 77, 3-(2-amino-6-o-tolylquinolin-3-yl)-N-((R)-1-(2-(difluoromethoxy)phenyl)ethyl)-2-methylpropanamide] | < 500 | 1000 to 5000 | 
2 | Cc1ccccc1-c1ccc2nc(N)c(CCC(=O)NCc3ccnnc3)cc2c1 [Example 139, 3-(2-amino-6-o-tolylquinolin-3-yl)-N-(pyridazin-4-ylmethyl)propanamide] | 1000 to 5000 | > 5000 | 
3 | Nc1nc2ccc(-c3ccccc3F)cc2cc1CCC(=O)NCC1CCCCC1 [Example 42, 3-(2-amino-6-(2-fluorophenyl)quinolin-3-yl)-N-(cyclohexylmethyl)propanamide] | < 500 | > 5000 | 
4 | Cc1ccccc1-c1ccc2nc(N)c(CCC(=O)NCC3CCCCO3)cc2c1 (stereo not shown) [Example 40, 3-(2-amino-6-o-tolylquinolin-3-yl)-N-((tetrahydro-2H-pyran-2-yl)methyl)propanamide] | < 500 | 1000 to 5000 | 
5 | 3-(3-amino-7-o-tolylnaphthalen-2-yl)-N-(1-(pyridin-2-yl)ethyl)propanamide [Example 56] | < 500 |  | 1000 to 5000
6 | Cc1cccnc1-c1ccc2nc(N)c(CC(C)C(=O)NCCC3CC3)cc2c1 (stereo not shown) [Example 111, 3-(2-amino-6-(3-methylpyridin-2-yl)quinolin-3-yl)-N-(2-cyclopropylethyl)-2-methylpropanamide] | < 500 | 1000 to 5000 | 
7 | 3-(3-amino-7-o-tolylnaphthalen-2-yl)-N-(2-fluorophenyl)propanamide [Example 28] | 500 to 1000 |  | 1000 to 5000
8 | Cc1cccnc1-c1ccc2nc(N)c(CC(C)C(=O)NCC(F)(F)F)cc2c1 (stereo not shown) [Example 110, 3-(2-amino-6-(3-methylpyridin-2-yl)quinolin-3-yl)-2-methyl-N-(2,2,2-trifluoroethyl)propanamide] | 500 to 1000 | 500 to 1000 | 
9 | CC(Cc1cc2cc(-c3cccc(Cl)c3Cl)ccc2nc1N)C(=O)NC1CCOC2(CCC2)C1 (stereo not shown) [Example 161, 3-(2-amino-6-(2,3-dichlorophenyl)quinolin-3-yl)-2-methyl-N-(5-oxaspiro[3.5]nonan-8-yl)propanamide] | < 500 | < 500 | 
10 | CC(C)c1ccccc1-c1ccc2nc(N)c(CCC(=O)NCC3CCCCC3)cc2c1 [Example 72, 3-(2-amino-6-(2-isopropylphenyl)quinolin-3-yl)-N-(cyclohexylmethyl)propanamide] | < 500 | > 5000 | 
11 | CC(Cc1cc2cc(-c3ccccc3Cl)ccc2nc1N)C(=O)NC1CCOC2(CCC2)C1 (stereo not shown) [Example 171, 3-(2-amino-6-(2-chlorophenyl)-3-quinolinyl)-2-methyl-N-(5-oxaspiro[3,5]non-8-yl)propanamide] | < 500 | < 500 | 
12 | Cc1nccn1-c1ccc2nc(N)c(CCC(=O)NCC3CCCCC3)cc2c1 [Example 4, 3-(2-amino-6-(2-methyl-1H-imidazol-1-yl)quinolin-3-yl)-N-(cyclohexylmethyl)propanamide] | > 5000 | > 5000 | 
13 | Cc1cccnc1-c1ccc2nc(N)c(CC(C)C(=O)NCCC(C)(C)C)cc2c1 (stereo not shown) [Example 5, 3-(2-amino-6-(3-methylpyridin-2-yl)quinolin-3-yl)-N-(3,3-dimethylbutyl)-2-methylpropanamide] |  | 500 to 1000 | 
14 | Cc1ccccc1-c1ccc2nc(N)c(CC(C)C(=O)NCc3cncs3)cc2c1 (stereo not shown) [Example 93, 3-(2-amino-6-o-tolylquinolin-3-yl)-2-methyl-N-(thiazol-5-ylmethyl)propanamide] |  | < 500 | 
15 | C[C@H](Cc1cc2cc(-c3ncccc3Cl)ccc2nc1N)C(=O)NCCC(C)(C)C [Example 128, (R)-3-(2-amino-6-(3-chloropyridin-2-yl)quinolin-3-yl)-N-(3,3-dimethylbutyl)-2-methylpropanamide] |  | < 500 | 
16 | CCC(Cc1cc2cc(-c3ccccc3C)ccc2nc1N)C(=O)NCC1CCCCC1 (stereo not shown) [Example 60, 2-((2-amino-6-o-tolylquinolin-3-yl)methyl)-N-(cyclohexylmethyl)butanamide] |  | > 5000 | 
17 | Cc1cccnc1-c1ccc2nc(N)c(C[C@@H](C)C(=O)NCCC(C)(C)C)cc2c1 [Example 126, (R)-3-(2-amino-6-(3-methylpyridin-2-yl)quinolin-3-yl)-N-(3,3-dimethylbutyl)-2-methylpropanamide] |  | < 500 | 
18 | Cc1ccccc1-c1ccc2nc(N)c(CCC(=O)NC3CCCCC3)cc2c1 [Example 13, 3-(2-amino-6-o-tolylquinolin-3-yl)-N-cyclohexylpropanamide] |  | 500 to 1000 | 
19 | Cc1ccccc1-c1ccc2nc(N)c(C[C@@H](C)C(=O)NCC3CCOCC3)cc2c1 [Example 87, (R)-3-(2-amino-6-o-tolylquinolin-3-yl)-2-methyl-N-((tetrahydro-2H-pyran-4-yl)methyl)propanamide] |  | < 500 | 
20 | CC(=O)c1ccccc1-c1ccc2nc(N)c(CC(C)C(=O)NCCC(C)(C)C)cc2c1 (stereo not shown) [Example 156, 3-(6-(2-acetylphenyl)-2-aminoquinolin-3-yl)-N-(3,3-dimethylbutyl)-2-methylpropanamide] |  | < 500 | 
21 | Cc1ccccc1-c1ccc2nc(N)c(CCC(=O)NCC3CCCCC3)cc2c1 [Example 14, 3-(2-amino-6-o-tolylquinolin-3-yl)-N-(cyclohexylmethyl)propanamide] |  | 500 to 1000 | 
22 | Cc1ccccc1-c1ccc2nc(N)c(CC(C)C(=O)NCC3CCCCC3)cc2c1 (stereo not shown) [Example 22, 3-(2-amino-6-o-tolylquinolin-3-yl)-N-(cyclohexylmethyl)-2-methylpropanamide] |  | < 500 | 
23 | Cc1ccccc1-c1ccc2nc(N)c(CC(C)C(=O)NCCC(C)(C)C)cc2c1 (stereo not shown) [Example 90, 3-(2-amino-6-o-tolylquinolin-3-yl)-N-(3,3-dimethylbutyl)-2-methylpropanamide] |  | < 500 | 
24 | Cc1ccccc1-c1ccc2nc(N)c(CCC(=O)N(C)C3CCCCC3)cc2c1 [Example 1, 3-(2-amino-6-o-tolylquinolin-3-yl)-N-cyclohexyl-N-methylpropanamide] |  | < 500 | 
25 | Cc1ccccc1-c1ccc2nc(N)c(C[C@@H](C)C(=O)NC3CCOC(C)(C)C3)cc2c1 (stereo partly drawn) [Example 164, (2R)-3-(2-amino-6-o-tolylquinolin-3-yl)-N-(2,2-dimethyltetrahydro-2H-pyran-4-yl)-2-methylpropanamide] |  | < 500 | 
26 | Cc1ccccc1-c1ccc2nc(N)c(CC(C)C(=O)NCc3ccccc3)cc2c1 (stereo not shown) [Example 52, 3-(2-amino-6-o-tolylquinolin-3-yl)-N-benzyl-2-methylpropanamide] |  | 1000 to 5000 | 
27 | Cc1ccccc1-c1ccc2nc(N)c(C[C@@H](C)C(=O)NCc3cnccn3)cc2c1 [Example 80, (R)-3-(2-amino-6-o-tolylquinolin-3-yl)-2-methyl-N-(pyrazin-2-ylmethyl)propanamide] |  | < 500 | 
28 | Cc1ccccc1-c1ccc2nc(N)c(CC(C(=O)NCC3CCCCC3)C(C)C)cc2c1 (stereo not shown) [Example 66, 2-((2-amino-6-o-tolylquinolin-3-yl)methyl)-N-(cyclohexylmethyl)-3-methylbutanamide] |  | 1000 to 5000 | 
